Each compound was assayed on MLKL phosphorylation (pMLKL) in HT29-L23 cells (assay: MLKL Phosphorylation High-Content Assay). Conditions: Homo sapiens, 6 h, necroptosis induced with human TNFα, SMAC mimetic and Z-VAD, read-out: LE pMLKL HC IC50.
Assay type: cell-based
Method: Following 6 h incubation at 37° C. […] MLKL phosphorylation was detected using anti-MLKL (phospho […]) antibody (Abcam #ab187091) (1:1000 dilution in Blocking Buffer [PBS supplemented with 0.1% BSA]) with ON incubation at 4° C. […] Following another three cycles of washes in PBS, the microplates were sealed, and cellular images were acquired in the Cellomics ArrayScan VTI high-content imager equipped with an X1 camera. […] The image sets were analyzed using the Compartmental Analysis Bioapplication software (Cellomics). The level of MLKL phosphorylation was quantified as […].

Row | SMILES | IC50 [nM]
1 | Nc1nc2cc(-c3cccc(OCCC(F)(F)Cc4ccccc4)c3F)ccn2n1 [Example 74, 7-(3-(3,3-difluoro-4-phenylbutoxy)-2-fluorophenyl)-[1,2,4]triazolo[1,5-a]pyridin-2-amine] | 5
2 | Nc1nc2cc(-c3cccc(OCCC(F)(F)Oc4ccc(F)cc4)c3F)ccn2n1 [Example 65, 7-(3-(3,3-difluoro-3-(4-fluorophenoxy)propoxy)-2-fluorophenyl)-[1,2,4]triazolo[1,5-a]pyridin-2-amine] | 140

Same assay, conditions: necroptosis induced with human TNFα, SMAC mimetic and Z-VAD, 6 h, read-out: LE pMLKL HC IC50

Row | SMILES | IC50 [nM]
3 | CC(O)(c1ccccc1)C(F)(F)CCOc1c(Cl)ccc(-c2ccn3nc(N)nc3c2)c1F (single isomer, unassigned) [Example 42, 5-(3-(2-amino-[1,2,4]triazolo[1,5-a]pyridin-7-yl)-6-chloro-2-fluorophenoxy)-3,3-difluoro-2-phenylpentan-2-ol] | 17
4 | CC(O)(c1ccc(F)cn1)C(F)(F)CCOc1c(Cl)ccc(-c2ccn3nc(N)nc3c2)c1F (single isomer, unassigned) [Example 32, 5-(3-(2-amino-[1,2,4]triazolo[1,5-a]pyridin-7-yl)-6-chloro-2-fluorophenoxy)-3,3-difluoro-2-(5-fluoropyridin-2-yl)pentan-2-ol] | 30
5 | CC(O)(c1ccc(F)cc1)C(F)CCOc1c(F)ccc(-c2ccn3nc(N)nc3c2)c1F (single isomer, unassigned) [Example 96, 5-(3-(2-amino-[1,2,4]triazolo[1,5-a]pyridin-7-yl)-2,6-difluorophenoxy)-3-fluoro-2-(4-fluorophenyl)pentan-2-ol] | 2
6 | CC(O)(c1ccc(F)cc1)C(F)(F)CCOc1cc(F)cc(-c2ccn3nc(N)nc3c2)c1F (single isomer, unassigned) [Example 11, 5-(3-(2-amino-[1,2,4]triazolo[1,5-a]pyridin-7-yl)-2,5-difluorophenoxy)-3,3-difluoro-2-(4-fluorophenyl)pentan-2-ol] | 0.2
7 | Cc1ccc(-c2ccn3nc(N)nc3c2)c(F)c1OCCC(F)C(F)(F)c1ccc(F)cc1 (single isomer, unassigned) [Example 120, 7-(2-fluoro-4-methyl-3-(3,4,4-trifluoro-4-(4-fluorophenyl)butoxy)phenyl)-[1,2,4]triazolo[1,5-a]pyridin-2-amine] | 9.6
8 | CC(N)(c1ccc(F)cc1)C(F)(F)CCOc1c(F)ccc(-c2ccn3nc(N)nc3c2)c1F (single isomer, unassigned) [Example 16, 7-(3-((4-amino-3,3-difluoro-4-(4-fluorophenyl)pentyl)oxy)-2,4-difluorophenyl)-[1,2,4]triazolo[1,5-a]pyridin-2-amine] | 20
9 | Cc1ccc(-c2ccn3nc(N)nc3c2)c(F)c1OCCC(F)C(F)(F)c1ccc(F)cc1 (single isomer, unassigned) [Example 121, 7-(2-fluoro-4-methyl-3-(3,4,4-trifluoro-4-(4-fluorophenyl)butoxy)phenyl)-[1,2,4]triazolo[1,5-a]pyridin-2-amine] | 89
10 | Nc1nc2cc(-c3ccc(Cl)c(OCCC(F)C(O)c4ccc(F)cc4)c3F)ccn2n1 (single isomer, unassigned) [Example 99, 4-(3-(2-amino-[1,2,4]triazolo[1,5-a]pyridin-7-yl)-6-chloro-2-fluorophenoxy)-2-fluoro-1-(4-fluorophenyl)butan-1-ol] | 15
11 | Nc1nc2cc(-c3cccc(OCCC(F)(F)C(N)c4ccc(F)cc4)c3F)ccn2n1 (single isomer, unassigned) [Example 61, 7-(3-(4-amino-3,3-difluoro-4-(4-fluorophenyl)butoxy)-2-fluorophenyl)-[1,2,4]triazolo[1,5-a]pyridin-2-amine] | 0.6
12 | Nc1nc2cc(-c3ccc(F)c(OCCC(F)C(O)c4ccc(F)cc4)c3F)ccn2n1 (single isomer, unassigned) [Example 103, 4-(3-(2-amino-[1,2,4]triazolo-[1,5-a]pyridin-7-yl)-2,6-difluorophenoxy)-2-fluoro-1-(4-fluorophenyl)butan-1-ol] | 1.5
